# Results from PubChem BioAssay AID1324 (NMMLSC, 2008).
# The source made the active and inactive calls. No rule for the calls is given here.
# Target: glutathione S-transferase (GST-GSH binding)
# Experiment: GST–glutathione interaction disruption – biochemical, multiplex beads, flow cytometry, HPSMTB buffer, profiling panel (AID 1324);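 also: glutathione beads loaded with GST-green fluorescent protein and no fluorescent Bim peptide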
# Conditions: multiplex bead flow cytometry, MCF
row,Compound,EC50
1,CCOC(=O)c1c2c3c(cccc3[nH]c1=O)C(=O)c1ccccc1-2,inactive
2,COCCCNc1nc(=S)[nH]c2cc(OC)c(OC)cc12,5.35 µM
3,Cc1cccc(/C=N/N(CCO)C2=NS(=O)(=O)c3ccccc32)c1,inactive
4,O=C(NCCO)c1ccc2nc(-c3ccco3)c(-c3ccco3)nc2c1,9.03 µM
5,Cc1ccc(Nc2nc(-c3c(C)nc4ncccn34)cs2)cc1,inactive
6,Cc1ccnc(SCc2cc(=O)c(OC(=O)c3ccc(Cl)c([N+](=O)[O-])c3)co2)n1,inactive
7,CN1CCN(c2ccc(N)cc2)CC1,inactive

# Same assay, conditions: multiplex bead flow cytometry, MCF, stronger effect = higher value, concentration not given here
row,Compound,percent span inhibition
1,COc1ccc(NC(=O)C2=C(C)NC(=O)NC2c2cccc(OC)c2OC)c(OC)c1 (centres undefined),inactive
2,COCCNc1nc(=S)[nH]c2cc(OC)c(OC)cc12,inactive
3,CCN(CC)c1ccc(-c2nn3c(-c4ccccc4OC)nnc3s2)cc1,inactive
4,Cc1c(N2C(=O)c3ccc4c5c(ccc(c35)C2=O)CC4)c(=O)n(-c2ccccc2)n1C,inactive
5,Cc1cccc(Nc2nc(-c3ccncc3)cs2)c1,inactive
6,Cc1cc(-c2cc(-c3ccc(Cl)cc3)nc(N)c2C#N)co1,inactive
7,COc1ccc(CN(C)CC(=O)NC(C)c2ccccc2)c(OC)c1 (centres undefined),inactive
8,CC1=CC(=O)c2ccccc2C1=O,inactive
9,OCCN1CCN(CCCc2c3c(cc4c2CCC4)CCC3)CC1,inactive
10,Cc1ccc(NC2=C(NC(=O)c3ccccc3)C(=O)c3ccccc3C2=O)cc1Cl,inactive
11,O=C(CCCN1C(=O)c2cccc3cccc(c23)C1=O)N1CCN(c2ccccn2)CC1,inactive
12,O=C(CNC(=O)c1ccco1)NCC(=O)OCc1ccccc1Br,inactive
13,COCCNC(=S)Nc1cc(OC)c(OC)cc1C#N,inactive
14,CCN1/C(=C/C(C)=C/c2sc3ccccc3[n+]2CC)Sc2ccccc21,inactive
15,COc1ccc(NS(=O)(=O)c2cc(NC(=O)c3ccc(C)o3)ccc2N2CCCCC2)cc1,inactive
16,CCN(CC)c1ccc(Nc2nc(N3CCOCC3)c3ccccc3n2)cc1,inactive
17,Cn1cc(CN2C[C@]3(C)C[C@H]2CC(C)(C)C3)c(-c2ccc3c(c2)OCCO3)n1,inactive
18,Cc1ccc(-c2cc(-c3ccc(C)o3)nc(N)c2C#N)cc1,inactive
19,Cc1ccc2nc3c(cc(C(N)=S)c(=N)n3CCCOC(C)C)c(=O)n2c1,inactive
20,CN(C)/C=C/C(=O)c1ccc(C(F)(F)F)cc1F,inactive
21,COC(=O)/C(=C/c1ccc(F)cc1)NC(C)=O,inactive
22,Cc1ccc(-c2cc(C(=O)Nc3nccs3)c3ccccc3n2)o1,inactive
23,COc1ccc(C2(NC(C)=O)CCN(C(=O)c3ccco3)CC2)cc1,inactive

row,Compound,percent span inhibition
1,Cc1ccc(-c2cc(-c3ccc(Cl)cc3)c(C#N)c(N)n2)o1,inactive
2,CNc1ccccc(C(=O)/C=C/c2ccccc2OC)c1=O,inactive
3,COC(=O)c1ccc(/C=N/NC(=O)CC(=O)NCc2cccnc2)cc1,inactive
4,O=C(COc1ccccc1)N1CCN(c2ncnc3c2cnn3-c2ccccc2)CC1,inactive
5,O=C1NC(=O)C2(Cc3c(nc4ccccn4c3=O)N3CCCCCC32)C(=O)N1Cc1ccccc1 (centres undefined),inactive
6,CN(/N=C/c1cccnc1)C1=NS(=O)(=O)c2ccccc21,inactive
7,COc1cc(N2CCOCC2)ccc1C=C1C(=O)NC(=O)NC1=O,inactive
8,CCOC(=O)C1(Cc2cccc(OC)c2)CCN(Cc2cccc(OC)c2OC)CC1,inactive
9,CC(C)CN1C(=O)/C(=C/c2ccco2)NC1=S,inactive
10,CN1C(=O)/C(=C/c2ccc(-c3ccccc3[N+](=O)[O-])o2)SC1=Nc1ccc(Cl)c(C(=O)O)c1,inactive
11,COc1ccc(CN(CC(=O)NC2CCCC2)C(=O)CCC(=O)Nc2cc(C)on2)cc1,inactive
12,Cc1cc(N2CCN(C)CC2)nc2ccc(NC(=S)N3CCN(c4ccc(F)cc4)CC3)cc12,inactive
13,Cc1nnc(Sc2cc(NCCO)c([N+](=O)[O-])c3nonc23)s1,inactive
14,COc1cc(/C=N/NC(=O)c2ccc([N+](=O)[O-])cc2Cl)cc(Br)c1O,inactive
15,OC(COc1ccc2ccccc2c1)CN1CCCC1 (centres undefined),inactive
16,O=C(Nc1ccc(N2CCOCC2)cc1)Nc1ccc2nc(-c3ccco3)c(-c3ccco3)nc2c1,inactive
17,CCOC(=O)CSc1nnc(-c2cccc(Cl)c2)n1CC,inactive
18,O=C1NC(=O)C(=Cc2ccc(-c3cc(Cl)ccc3[N+](=O)[O-])o2)C(=O)N1,inactive
19,CCOC(=O)c1c(NC(=O)c2ccccc2N(C)S(=O)(=O)c2ccccc2)sc2c1CCCC2,inactive
20,COc1cccc2c(SCC(=O)N/N=C/c3ccccc3)cc(C)nc12,inactive
21,COc1ccccc1OCc1ccc(C(=O)Nc2ccccc2F)cc1,inactive
22,CCCCOC(=O)c1nc(Cl)c(Cl)c(N)c1Cl,inactive
23,O=C(Nc1nccs1)c1ccc(COc2ccc(F)cc2)o1,inactive

row,Compound,percent span inhibition
1,CCOc1cc(S(=O)(=O)N2CCCCC2)ccc1F,inactive
2,Cc1ccnc(NS(=O)(=O)c2ccc(NS(=O)(=O)c3cccs3)cc2)n1,inactive
3,COc1ccc(N2CCN(CCCNC(=O)CCCn3c(=O)[nH]c4ccsc4c3=O)CC2)cc1,inactive
4,COc1ccccc1NC(=O)CSc1ncn(-c2ccccc2)n1,inactive
5,Fc1ccc(Cn2nnnc2C(c2ccc(Cl)cc2)N2CCSCC2)cc1 (centres undefined),inactive
6,CCC(=O)N(CC)C1=C(O)c2ccccc2C(=O)C1=O,inactive
7,O=[N+]([O-])c1c(NCCCO)cc(Sc2nc3ccccc3s2)c2nonc12,inactive
8,Cc1ccc(S(=O)(=O)NC(=O)COc2ccccc2C)cc1,inactive
9,S=C(NCCc1ccccc1)NCCc1ccccc1,inactive
10,COc1c(F)c(F)c(C(=O)Nc2ccccc2N2CCN(C(=O)C(C)C)CC2)c(F)c1F,inactive
11,CNc1ccc(Br)cc(C(=O)/C=C/c2cccc(OC)c2)c1=O,inactive
12,CNCc1ccccc1Sc1ccc(O)c(O)c1,inactive
13,COc1cc(N=c2ssnc2Cl)cc(OC)c1,inactive
14,c1ccc(-c2nnc(OCCN3CCOCC3)c3ccccc23)cc1,inactive
15,C/C(=C\c1ccco1)C1Nc2cccc3cccc(c23)N1,inactive
16,Cc1ccc(NC(=O)CC2S/C(=N/N=C/c3c[nH]c4ccccc34)NC2=O)cc1 (centres undefined),inactive
17,CC(C)Cc1cc(-c2ccco2)c(C#N)c(N)n1,inactive
18,CC(C(=O)Nc1ccc([N+](=O)[O-])cc1)N1CCN(C/C=C/c2ccccc2)CC1 (centres undefined),inactive
19,COc1ccccc1Cn1nnc2c(=O)[nH]c(C3CCN(C(=O)c4ccc(C)cc4)CC3)nc21,inactive
20,CCCCc1ccc(NC(=S)NCc2ccc(OC)cc2)cc1,inactive
21,Nc1ccc(N2CCN(CCCCN3C(=O)C4CCCN4C3=O)CC2)cc1 (centres undefined),inactive
22,c1coc(C2=Nc3cccc4cccc(c34)N2)c1,inactive
23,Cc1ccc(NC2=C(Cl)C(=O)c3ccccc3C2=O)cc1,inactive

row,Compound,percent span inhibition
1,Cc1ccc(/C=C/C(=O)c2ccccc(=O)c2O)cc1C,inactive
2,COc1cccc(N2CC(C(=O)Nc3nnc(SCC(=O)c4ccccc4)s3)CC2=O)c1 (centres undefined),inactive
3,Cc1ccc(Nc2nc(-c3ccccc3)c(CC(=O)O)s2)cc1,inactive
4,O=C(O)CCN1C(=O)/C(=C\c2ccc(-c3nc4ccccc4s3)o2)SC1=S,inactive
5,Cc1csc(SCCn2c(N3CCN(c4ccccc4)CC3)nc3c2c(=O)[nH]c(=O)n3C)n1,inactive
6,CC1Nc2ccccc2C(=O)N1NS(=O)(=O)c1ccccc1 (centres undefined),inactive
7,Cc1ccc(-c2c3c([nH]c(=S)c2C#N)CCCC3)o1,inactive
8,Cc1ccc(C(=O)CCC(=O)Nc2ccc(Cl)c(S(=O)(=O)Nc3cccc(Cl)c3)c2)cc1,inactive
9,CC(C)CNC(=O)c1cccc(NC(=O)c2ccc(Cl)c([N+](=O)[O-])c2)c1,inactive
10,COc1ccccc1N(C)S(=O)(=O)c1ccc(C(=O)OCC(N)=O)cc1,inactive
11,Clc1ccc(N=c2ssnc2Cl)nc1,inactive
12,Cc1ccc(Nc2nc(CSc3nnc(-c4cccnc4)n3-c3ccccc3C)cs2)cc1,inactive
13,O=[N+]([O-])c1cccc(S(=O)(=O)NCC2CCCO2)c1 (centres undefined),inactive
14,CN1N=C(C(=O)N2CCCC(C(=O)c3cccc(C(F)(F)F)c3)C2)CCC1=O (centres undefined),inactive
15,C/C(=N\NC(=O)Cc1cccn1C)c1ccc2ccccc2c1,inactive
16,COC(=O)Cc1cc(=O)[nH]c(Nc2nc3ccccc3o2)n1,inactive
17,COc1ccc(-n2cc(-c3ccc(OC)c(OC)c3)[nH]c2=S)cc1,inactive
18,CC1(C(=O)N(CC(=O)NC2CCCC2)Cc2ccco2)CC(=O)N=C2C=CC=CN21 (centres undefined),inactive
19,O=C(N/N=C/c1ccc(-c2ccccc2[N+](=O)[O-])o1)c1cncc(Br)c1,inactive
20,COc1ccc(C(=O)Nc2ccc(C(=O)OCC(=O)c3cccc4ccccc34)cc2)cc1,inactive
21,N#Cc1cccc(N=c2ssnc2Cl)c1,inactive
22,COC(=O)CSc1ncnc2c1sc1nc(-c3ccco3)c3c(c12)CC(C)(C)OC3,inactive
23,COc1cc(NC(=S)NC(=O)c2cc(C)cc(C)c2)ccc1NC(=O)c1cccs1,inactive
